These results are taken from patent US5663174A, “Aromatic sulfonamide derivatives, their use as enzyme inhibitors and pharmaceutical compositions containing them” (Pharno-Wedropharm GmbH, priority 1997, dated 1997).

This assay deals with T1, bovine pancreatic PLA2 (Bos taurus, UniProt P00593).
T1 construct: from tissue; host or cells: bovine pancreas
Kind of assay: Phospholipase A2 (PLA2) activity, enzyme assay. The format is biochemical. As for the experimental part:
Phospholipase A2 (PLA2) activity was measured using bovine pancreatic PLA2 as the enzyme and a sonicated dispersion of 1-stearoyl-2-[C^14 ]-arachidonyl-phosphatidylcholine (56 mCi/mmol) as the substrate in the following manner: 60 ng bovine pancreatic PLA2 was mixed and incubated with buffer and inhibitors (100 mM Tris, pH 8; 100 mM CaCl2; 20 mM EDTA, pH 8) at 37° C. for 10 min. to allow interaction between the enzyme and the drugs. The substrate (38 nCi) in buffer and 0.3% cholate was added to initiate the reaction which continued for 20 min. at 37° C. The total reaction volume was 0.1 ml. The reaction was stopped by adding 0.1 ml of an ice cold EtOH/HOAc 98:2 mixture. Released arachidonic acid was separated from the unreacted substrate via thin layer chromatography on silica gel (solvent system CHCl3 /MeOH/H2 O 14:6:1). The radioactivity of the two spots was quantified using a bioscanner.
Inhibitors were dissolved in buffer^13 and tested in duplicate within each experiment, and each inhibitor was tested in at least two experiments. When necessary, inhibitors were dissolved in DMSO^14. The % inhibition at a given concentration was combined for several experiments and the IC50 determined from a semilog plot of % inhibition vs concentration. Under the condition described the rate of hydrolysis was 20-25% of the substrate being hydrolyzed in absence of inhibitors.
^13 0.01 ml inhibitor solution were used in these experiments.
^14 0.005 ml inhibitor solution were used in these experiments (=5 vol %).

Setting [1] is: Table 20, from semilog plot of % inhibition vs concentration, substrate 1-stearoyl-2-[C^14]-arachidonyl-phosphatidylcholine, 37° C., pH 8, 20 min.
Setting [2] is: Table 20, from semilog plot of % inhibition vs concentration, substrate 1-stearoyl-2-[C^14]-arachidonyl-phosphatidylcholine, 37° C., pH 8, 20 min, read-out: IC50.

Where two headings read alike, the source gives them in different places.

T1 sequence (P00593 23-145): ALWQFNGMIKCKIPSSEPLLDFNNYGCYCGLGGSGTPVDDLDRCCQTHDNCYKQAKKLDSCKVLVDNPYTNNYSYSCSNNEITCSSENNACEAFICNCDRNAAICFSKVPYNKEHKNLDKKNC

Take `O=C([C@H](Cc1ccccc1)NS(=O)(=O)c1ccccc1)N1CCNCC1` [Compound 1, N-benzenesulfonyl-L-phenylalanine piperazineamide]: the IC50 entry under setting [1] is listed as “promotion”.
On the same count and under the same terms, as for `C[C@H](NS(=O)(=O)c1ccccc1)C(=O)N1CCNCC1` [Compound 2, N-benzenesulfonyl-L-alanine piperazineamide], the entry is “promotion”.
On to `O=C(Nc1ccc(-c2ccccc2)cc1)[C@H](Cc1ccccc1)NS(=O)(=O)c1ccccc1` [Compound 7, N-benzenesulfonyl-L-phenylalanine biphenylamide], for which, under setting [2], the IC50 was 310 µM.
On the same count and under the same terms, as for `O=C(Nc1ccc(-c2ccccc2)cc1)[C@@H]1CCCN1S(=O)(=O)c1ccccc1` [Compound 10, N-benzenesulfonyl-L-proline biphenylamide], the figure is 520 µM.
The same measure, in the same setting: as for `O=C(Nc1ccc(-c2ccccc2)cc1)[C@H](Cc1c[nH]c2ccccc12)NS(=O)(=O)c1ccccc1` [Compound 11, N-benzenesulfonyl-L-tryptophane biphenylamide], the figure is 570 µM; as for `O=C([C@H](Cc1ccccc1)NS(=O)(=O)c1cccc2c(Cl)cccc12)N1CCNCC1` [Compound 21, N-(5-chloro-1-naphthalenesulfonyl)-L-phenylalanine piperazineamide], 600 µM.
Same read-out and setting: as for `CC(C)[C@H](NS(=O)(=O)c1cccc2c(Cl)cccc12)C(=O)N1CCNCC1` [Compound 22, N-(5-chloro-1-naphthalenesulfonyl)-L-valine piperazineamide], the figure is 310 µM.
For `NCCCCCCNC(=O)[C@H](Cc1ccccc1)NS(=O)(=O)c1cccc2c(Cl)cccc12` [Compound 25, N-(5-chloro-1-naphthalenesulfonyl)-L-phenylalanine-1,6-diaminohexaneamide], the IC50 (text example, read-out: IC50 (concentration which would bring about an inhibition of 50%)) amounted to 67 µM.
On to `O=S(=O)(Nc1ccc(-c2ccccc2)cc1)c1cccc2c(Cl)cccc12` [Compound 30, N-biphenyl-5-chloro-1-naphthalenesulfonamide], for which the IC50 under setting [2] is 275 µM.
As usually defined, the inhibition is the percentage by which the read-out fell short of the control. Low values mean a response near the control, high ones a response far below the control. `O=C([C@H](Cc1ccccc1)NS(=O)(=O)c1cccc2cnccc12)N1CCNCC1` [Compound 31, N-(5-isoquinolinesulfonyl)-L-phenylalanine piperazineamide] registered an inhibition at 100 µM of 70.1%. Moreover, the IC50 result under setting [1] is recorded as “promotion”. The compound further showed an inhibition at 300 µM (at 300 μM) of 54%.
Turning to `NCCCCCCNC(=O)[C@H](Cc1ccccc1)NS(=O)(=O)c1cccc2cnccc12` [Compound 35, N-(5-isoquinolinesulfonyl)-L-phenylalanine-1,6-diaminohexaneamide], under setting [2], the IC50 was determined as 263 µM.
On the same count and under the same terms, in the case of `CC(C)[C@H](NS(=O)(=O)c1cccc2cnccc12)C(=O)Nc1ccc(-c2ccccc2)cc1` [Compound 37, N-(5-isoquinolinesulfonyl)-L-valine biphenylamide] it was 470 µM.
Same read-out and setting: as for `O=C(Nc1ccc(-c2ccccc2)cc1)[C@@H]1CCCN1S(=O)(=O)c1cccc2cnccc12` [Compound 38, N-(5-isoquinolinesulfonyl)-L-proline biphenylamide], the figure is 130 µM.
Consider `O=C(Nc1ccc(-c2ccccc2)cc1)[C@H]1CCCN1S(=O)(=O)c1cccc2cnccc12` [Compound 40, N-(5-isoquinolinesulfonyl)-D-proline biphenylamide], for which, under setting [2], the IC50 worked out at 435 µM.
On to `O=S(=O)(Nc1ccc(-c2ccccc2)cc1)c1cccc2cnccc12` [Compound 41, N-biphenyl-5-isoquinolinesulfonamide], for which the inhibition at 100 µM stood at 28.3%. Also, under setting [1], the IC50 entry is reported as “promotion”. For the setting “at 10 μM”, the inhibition at 10 µM was 31.6%.
Regarding `O=S(=O)(Nc1ccccc1)c1cccc2c(Cl)cccc12` [compound 43, reference compound], the IC50 under setting [2] was 190 µM.
